Data reported in patent US20260355199A1, “COMPOSITIONS AND METHODS FOR TREATING OR PREVENTING NONALCOHOLIC STEATOHEPATITIS (NASH), ANOREXIA, DEPRESSION, ENDOMETRIOSIS, AND OTHER DISEASES OR DISORDERS” (priority 2022, published 2026).
“Also recorded” adds a separate entry of the source.

Legend:
RAW 264.7 cells = experiment: TUNEL assay in RAW 264.7 cells; format: cell-based, mouse; conditions: RAW 264.7, 10 μM, 48 h
Description: (§1) For TET3 expression restoration experiments, cells seeded in 24-well plates were infected with Ad-GFP or Ad-TET3 at 4000 gc/cell. Following 16 h of infection, vehicle or Bobcat339 were added at a final concentration of 10 μM. Protein and RNA were isolated 48 hours later and analyzed.
These were performed using the In Situ Cell Death Detection Kit (Sigma Aldrich, 12156792910). Briefly, cells were fixed with 4% paraformaldehyde in PBS for 1 h at RT and rinsed with PBS, followed by permeabilization with 0.1% Triton X-100 in 0.1% sodium citrate for 2 min on ice. TUNEL reaction mixture was added and incubation was carried out at 37 °C for 60 min. DAPI was added to counter-stain the cells for 1 min. The slides were coverslipped and scoped using a Keyence BZ-X700 fluorescence microscope.

Caspase-1 = Caspase-1 assay in human MDMs; format: cell-based; conditions: 10 μM, 48 h
Description: as §1
These were carried out using the Apoptosis/Caspase-1 assay kit (MyBioSource, MBS258046). Briefly, after wash with PBS, cells were incubated with 1×FAM-FLCA working solution in 300 μL growth media at 37 °C for 1 hour, followed by wash with 1× Cellular Wash Buffer three times. Hoechst 33342 was applied to counter-stain the cells for 15 min. Cells were then covered with mounting media and coverslips and scoped using a Keyence BZ-X700 fluorescence microscope.

[1] = system: Lewis lung carcinoma (LLC); experiment: Syngeneic LLC murine model of lung cancer; format: in vivo, mouse; conditions: for body weight gain: day 16 vs. day 0
Description: Metastatic lung cancer was established by tail vein injection of Lewis lung carcinoma (LLC) (a mouse NSCLC cell line, Bertram et al., 1980, Cancer Lett, 11:63-73) cells into immunocompetent mice (FIG. 30A). Intravenous dosing of Bobcat339 (or vehicle) at 2.5 mg/kg every four days was initiated three days after tumor cell injection. The lungs were collected at day 20 from sacrificed mice. On day 16 as compared to day 0, mice in the Veh group lost ~5% of body weight, whereas those in the Bobcat339 group gained ~6% of body weight, which would be expected for a normal female mouse during this age period (FIG. 30B). […] Severe weight loss is frequently seen in patients with NSCLC, which is also associated with systemic inflammation and cancer cachexia (Staal-van den Brekel et al., 1995, J Clin Oncol, 13:2600-2605; Fredrix et al., 1991, Cancer, 68:1616-1621; Jatoi et al., 2001, Ann Thorac Surg, 72:348-351; Ulmann et al., 2019, Ann Nutr Metab, 75:223-230; Jouinot et al., 2020, Clin Nutr, 39:1893-1899).
Metastatic lung cancer was established by tail vein injection of Lewis lung carcinoma (LLC) (a mouse NSCLC cell line) (Bertram et al., 1980, Cancer Lett, 11:63-73) cells into immunocompetent mice (FIG. 29). Intravenous dosing of Bobcat339 (or vehicle) at 3 mg/kg every four days was initiated three days after tumor cell injection. The lungs were collected at day 20 from sacrificed mice.
LLC cells (2.5×10^5 cells/mouse) were injected into the tail vein of female C57BL/6J mice of 8-weeks old. Mice were randomly divided into vehicle (n=5) and Bobcat339 (n=5) groups. Three days after tumor cell injection, the vehicle group mice received tail vein injection of DMSO and the Bobcat339 group with Bobcat339 at the dose of 2.5 or 3 mg/kg body weight every four days. The animals were sacrificed 20 days after tumor cell injection and lungs were isolated and weighed. The whole lung was fixed in 4% paraformaldehyde overnight at 4 °C and embedded in paraffin for histological analysis and IHC. A second cohort of mice (n=5 in each group) treated as above were used for survival studies using moribund as an experimental endpoint.

AgRP neurons = experiment: AgRP neuron viability and activation (FOS); format: in vivo, mouse; conditions: Bobcat339 vs. vehicle mice
Source text: As genetic TET3 knockdown specifically in AgRP neurons activated these neurons (Xie et al., 2022, J Clin Invest, 132), additional studies tested whether Bobcat339 treatment can activate AgRP neurons using FOS (a marker for neuronal activation) as a readout. Thus, ARCs were isolated under fed conditions (9:00-11:00) from mice treated with Bobcat339 or vehicle as above (FIG. 16A through FIG. 16D).
Bobcat339 powder (Sigma-Aldrich, SML2611) was freshly dissolved in DMSO (vehicle) at a concentration of 50 mg/mL and filtered through a 0.22 micron. It was further diluted with 1×PBS to a final concentration of 0.5 mg/mL before injections. Mice were injected intraperitoneally with Bobcat339 at 1 mg/kg, 2.5 mg/kg, or 4 mg/kg.
The immunofluorescence for brain slices was conducted using previous methods (18). In brief, postfixed sections were cut into 40-μm-thick sections, followed by 5 times washing. […] The sections were coverslipped and scoped using a Keyence BZ-X700 fluorescence microscope. The fluorescence signals from GFP in AgRP neurons were detected without immunostaining.

[2] = 2.5 mg/kg i.v. every four days, day 20

## Nc1nc(=O)n(-c2cccc(-c3ccccc3)c2)cc1Cl [Bobcat339, 4-Amino-1-[1,1′-biphenyl]-3-yl-5-chloro-2(1H)-pyrimidinone]
RAW 264.7 cells
  apoptosis (TUNEL): induced apoptosis; also recorded: a significant increase in apoptotic cell death
RAW 264.7 cells; with Ad-TET3
  apoptosis (TUNEL): reversed by overexpression of TET3; also recorded: not seen when TET3 was overexpressed
Caspase-1
  apoptosis (Caspase-1): increased apoptosis; also recorded: a significant increase in pyroptotic cell death
[1]; 2.5 mg/kg i.v. every four days
  food intake: no difference in food intake
  body weight gain: ~ 6%
[1]; [2]
  LLC metastases in lungs: Fewer LLC metastases
  lung weight: significantly less
[1]; 3 mg/kg i.v. every four days
  LLC metastases in lungs: fewer LLC metastases
  food intake: no difference in food intake
  lung weight: significantly less
  survival rate: an increased survival rate
  body weight gain: ~ 6%
AgRP neurons
  AgRP neuronal viability / number: did not affect AgRP neuronal viability; also recorded: no significant difference between the groups
AgRP neurons; fed
  FOS expression in AgRP neurons: increased expression of FOS in AgRP neurons
